Test: Phosphate-binding assay in phosphate-binding solution (PBS) simulating small intestinal fluid (SIF)
Description: Exemplary stock solutions suitable for phosphate-binding assays include the following: phosphate-binding solution (“PBS”) containing 10 mM KH2PO4, 30 mM Na2CO3, 80 mM NaCl, as described in Rosenbaum et al. Nephrol. Dial. Transplant. 12:961-964 (1997); acetate buffer (“AB”) solution containing 0.1N acetic acid, 0.025N sodium acetate, as described in Lowry & Lopez J. Biol. Chem. 162:421-428 (1946); ammonium molybdate (“AM”) solution containing 1% ammonium molybdate in 0.05N H2SO4, as described in Lowry & Lopez; ascorbic acid (“AA”) solution containing 1% ascorbic acid in H2O, as described in Lowry & Lopez.
In general, the phosphate-binding assay was conducted in 12×75 mm glass tubes. 4.0 mL PBS (which is a solution simulating SIF) and 20 mg putative phosphate binder were added to a glass tube and then mixed for 1 h at room temperature. 0.1 mL supernatant was pipetted from this tube to a new test tube. 3.0 mL AB, 0.3 mL AA and 0.3 mL AM solutions were added and O.D. were measured at 700 nm after 10 minutes.
The phosphate binding capacity was calculated as follows (mcg stands for micrograms): ((O.D. of sample×95)/O.D. of standard)×40=mcgPO4 left in solution ((3800−mcgPO4 left)×50)/1000=mgPO4 bound per gram of phosphate binder

[1] = Table 2, 20 mg binder in 4.0 mL PBS, 1 h, room temperature
[2] = Table 3, 20 mg binder in 4.0 mL PBS, 1 h, room temperature
[3] = Table 4, calculated from Table 3 and % Mg (or % Ca)

Work on O=C([O-])[O-].[Ca+2] [CaCO3, calcium carbonate, reference compound] yielded a PO4 binding [1] of 10.9 mg/g.

For CC(=O)[O-].CC(=O)[O-].[Mg+2] [Mg acetate], the PO4 binding [2] was 4 mg/g.

O=C([O-])CCCCC(=O)[O-].[Mg+2] [Mg adipate] showed a PO4 binding [2] of 6 mg/g.

In the case of O=C1O[C@H]([C@@H](O)CO)C(O)=C1[O-].O=C1O[C@H]([C@@H](O)CO)C(O)=C1[O-].[Mg+2] [Mg ascorbate], the PO4 binding [2] is reported as 4 mg/g.

With N[C@@H](CC(=O)[O-])C(=O)[O-].[Mg+2] [Mg aspartate, magnesium aspartate] the PO4 binding [2] was 50 mg/g.

[Cl-].[Cl-].[Mg+2] [Mg chloride, magnesium chloride] gave a PO4 binding [2] of 4 mg/g.

With O=C([O-])CC(O)(CC(=O)[O-])C(=O)[O-].O=C([O-])CC(O)(CC(=O)[O-])C(=O)[O-].[Mg+2].[Mg+2].[Mg+2] [Mg citrate] the PO4 binding [1] was 16.3 mg/g and the PO4 binding [2] was 15 mg/g.

In the case of O=C[O-].O=C[O-].[Mg+2] [Mg formate], the PO4 binding [2] is reported as 6 mg/g.

With O=C([O-])/C=C/C(=O)[O-].[Mg+2] [Mg fumarate] the PO4 binding [2] was 4 mg/g.

With NCC(=O)[O-].NCC(=O)[O-].[Mg+2] [Mg glycinate, magnesium glycinate] the PO4 binding [2] was 176 mg/g, the “mg PO4 bound per g Mg or Ca in compound” value [3] was 1248 mg PO4 per g Mg or Ca and the “mg PO4 bound per g compound” value (Table 4, taken from Table 3) was 176 mg PO4 per g compound. The “mg PO4 bound per g Mg or Ca in compound” value (Table 5, additional results) was 1255 mg PO4 per g Mg (or Ca) and the “mg PO4 bound per g compound” value (Table 5, additional results) was 177 mg PO4 per g compound.

With CC(O)C(=O)[O-].CC(O)C(=O)[O-].[Mg+2] (stereo not shown) [Mg lactate] the PO4 binding [2] was 15 mg/g.

In the case of O=C([O-])CC(O)C(=O)[O-].[Mg+2] (stereo not shown) [Mg malate], the “mg PO4 bound per g compound” value (Table 5, additional results) is reported as 29 mg PO4 per g compound.

With O=C([O-])/C=C\C(=O)[O-].[Mg+2] [Mg maleate] the PO4 binding [2] was 15 mg/g.

Compound O=C([O-])c1cccnc1.O=C([O-])c1cccnc1.[Mg+2] [Mg nicotinate] has a PO4 binding [2] of 4 mg/g.

O=C([O-])c1cc(=O)[nH]c(=O)[nH]1.O=C([O-])c1cc(=O)[nH]c(=O)[nH]1.[Mg+2] [Mg orotate] showed a PO4 binding [2] of 20 mg/g.

CCC(=O)[O-].CCC(=O)[O-].[Mg+2] [Mg propionate, magnesium propionate] showed a PO4 binding [2] of 59 mg/g.

In the case of O=C([O-])CCC(=O)[O-].[Mg+2] [Mg succinate], the PO4 binding [2] is reported as 18 mg/g.

In the case of O=S(=O)([O-])[O-].[Mg+2] [Mg sulfate], the PO4 binding [2] is reported as 9 mg/g.

With O=C([O-])C(O)C(O)C(=O)[O-].[Mg+2] (stereo not shown) [Mg tartrate, magnesium tartrate] the PO4 binding [2] was 28 mg/g.

With [Mg+2].[OH-].[OH-] [Mg(OH)2, magnesium hydroxide] the PO4 binding [1] was 176.2 mg/g, the PO4 binding [2] was 182 mg/g and the “mg PO4 bound per g Mg or Ca in compound” value [3] was 436 mg PO4 per g Mg or Ca. The “mg PO4 bound per g compound” value (Table 4, taken from Table 3) was 182 mg PO4 per g compound and the PO4 binding (Table 6, without acid treatment) was 179.0 mg/g.

O=C([O-])[O-].[Mg+2] [MgCO3, magnesium carbonate] showed a PO4 binding [1] of 19.0 mg/g and a PO4 binding [2] of 22 mg/g.

In the case of [O]=[Mg] [MgO, magnesium oxide], the PO4 binding [1] is reported as 184.0 mg/g, the PO4 binding [2] is reported as “≧190 mg/g” and the “mg PO4 bound per g Mg or Ca in compound” value [3] is reported as 315 mg PO4 per g Mg or Ca. The “mg PO4 bound per g compound” value (Table 4, taken from Table 3) was 190 mg PO4 per g compound, the “mg PO4 bound per g Mg or Ca in compound” value (Table 5, additional results) was 310 mg PO4 per g Mg (or Ca) and the “mg PO4 bound per g compound” value (Table 5, additional results) was 187 mg PO4 per g compound.

For O.O.O.O.O.O.O.O=S(=O)([O-])[O-].[Mg+2] [MgSO4•7H2O], the PO4 binding [1] was 19.0 mg/g.

Compound Mg stearate has a PO4 binding [2] of 15 mg/g.

With “magnesium aminobutyrate [Mg aminobutyrate]” the PO4 binding [2] was 85 mg/g and the “mg PO4 bound per g compound” value (Table 5, additional results) was 76 mg PO4 per g compound.

For magnesium arginate [Mg arginate], the PO4 binding [2] was 121 mg/g, the “mg PO4 bound per g Mg or Ca in compound” value [3] was 1862 mg PO4 per g Mg or Ca and the “mg PO4 bound per g compound” value (Table 4, taken from Table 3) was 121 mg PO4 per g compound. The “mg PO4 bound per g Mg or Ca in compound” value (Table 5, additional results) was 1815 mg PO4 per g Mg (or Ca) and the “mg PO4 bound per g compound” value (Table 5, additional results) was 118 mg PO4 per g compound.

With magnesium betainate [Mg betainate] the PO4 binding [2] was 147 mg/g, the “mg PO4 bound per g Mg or Ca in compound” value [3] was 1547 mg PO4 per g Mg or Ca and the “mg PO4 bound per g compound” value (Table 4, taken from Table 3) was 147 mg PO4 per g compound. For the same compound, the “mg PO4 bound per g Mg or Ca in compound” value (Table 5, additional results) was 1484 mg PO4 per g Mg (or Ca) and the “mg PO4 bound per g compound” value (Table 5, additional results) was 141 mg PO4 per g compound.

Work on magnesium carnitinate [Mg carnitinate] yielded a PO4 binding [2] of 169 mg/g.

With magnesium lysinate [Mg lysinate] the PO4 binding [2] was 150 mg/g, the “mg PO4 bound per g Mg or Ca in compound” value [3] was 1948 mg PO4 per g Mg or Ca and the “mg PO4 bound per g compound” value (Table 4, taken from Table 3) was 150 mg PO4 per g compound. For the same compound, the “mg PO4 bound per g Mg or Ca in compound” value (Table 5, additional results) was 1792 mg PO4 per g Mg (or Ca), the “mg PO4 bound per g compound” value (Table 5, additional results) was 138 mg PO4 per g compound and the “phosphate bound by 1 gram of Mg in the salt relative to 1 gram of calcium in PhosLo (Ca acetate)” value (from Table 4) was “almost three times as much”.
